Test results reported in patent publication US20090081758A1, “Chimeric Cytochrome P450 Proteins and Methods of Use” (THE REGENTS OF THE UNIVERSITY OF MICHIGAN, priority 2007, published 2009).

Key:
PikC-RhFRED [1] = assay: Steady-state kinetics, substrate consumption by HPLC, PikC-RhFRED; format: biochemical, Streptomyces venezuelae; settings: kcat/Km of PikC-RhFRED relative to wt-PikC with Fdr and Fdx
Procedure: Subsequently, the kinetic parameters of PikC-RhFRED were compared with those of the PikC-Fdr-Fdx three component system. […] Moreover, the solubility limitation (less than 500 μM) of macrolides in aqueous solution prevented us from deducing the K, value. Therefore, the apparent specificity constants (kcat/Km) were determined by fitting the low-concentration data to the linear region of a Michaelis-Menten curve. […] In contrast, the specificity constants of wt-PikC partnered by Fdr and Fdx were 0.24 μM^−1·min^−1 for YC-17 and 0.31 μM^−1·min^−1 for narbomycin. It is evident that the fusion enhanced the catalytic activity approximately 4 fold for both YC-17 and narbomycin. […] The presumed de-coupling between electron transfer and hydroxylation may account for this difference.
The standard reaction contains 100 nM of PikC-RhFRED (or 150 nM of wt-PikC with 3.5 μM spinach ferredoxin and 0.1 U/ml spinach ferredoxin-NADP^+ reductase), 20˜250 μM substrate in 200 μl of desalting buffer (50 mM NaH2PO4, pH 7.3, 1 mM EDTA, 0.2 mM DTE, 10% glycerol). After pre-incubation at 30° C. for 5 min, the reaction was initiated by adding 1 μl of 50 mM NADPH and 50 μl aliquots were taken at 0 s, 20 s, and 40 s (or Os, 30 s, and 60 s when substrate concentration greater than 100 μM) to thoroughly mix with 2×100 μl of chloroform. […]

wt-PikC = wt-PikC (Streptomyces venezuelae, UniProt O87605); assay: Spectral substrate binding assay, wt-PikC; settings: Type I difference spectra, 1 μM P450, room temperature; read-out: Kd (dissociation constant)
wt-PikC, sequence (O87605 whole entry, the tested form may be a part): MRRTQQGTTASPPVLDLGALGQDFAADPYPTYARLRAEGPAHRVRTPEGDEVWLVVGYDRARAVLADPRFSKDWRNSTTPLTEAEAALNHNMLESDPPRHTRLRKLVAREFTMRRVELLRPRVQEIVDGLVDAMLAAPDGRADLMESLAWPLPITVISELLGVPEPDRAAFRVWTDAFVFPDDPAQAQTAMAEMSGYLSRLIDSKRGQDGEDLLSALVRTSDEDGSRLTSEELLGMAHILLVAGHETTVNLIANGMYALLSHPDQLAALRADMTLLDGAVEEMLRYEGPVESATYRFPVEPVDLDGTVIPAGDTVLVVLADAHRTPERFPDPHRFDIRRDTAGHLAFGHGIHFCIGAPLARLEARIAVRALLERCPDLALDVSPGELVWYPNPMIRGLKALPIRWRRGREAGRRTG
Procedure: (§1) Spectral substrate binding assays were performed using a UV-visible spectrophotometer 300 Bio (Cary) at room temperature by titrating 30 mM substrate DMSO solution (blank DMSO for reference group) into 1 ml of 1 μM P450 sample in 1 μl aliquots, leading to substrate concentration ranging from 30 to 360 μM. The series of Type I difference spectra were used to deduce ΔA (Apeak(389)−Atrough(424)). Then, the data were fit to Michaelis-Menten equation to obtain the dissociation constant Kd. As mentioned above, one benefit of the fusion protein arrangement is the facility of the covalent linkage to stabilize productive interactions between the P450 and redox partner, thus enhancing electron transfer efficiency. […] To test whether this also applies to PikC-RhFRED, we first determined the substrate binding affinity of YC-17 and narbomycin toward both PikC and PikC-RhFRED.

PikC-RhFRED [2] = assay: Spectral substrate binding assay, PikC-RhFRED; set-up: species or system Streptomyces venezuelae; settings: Type I difference spectra, 1 μM P450, room temperature; read-out: Kd (dissociation constant)
Procedure: as §1

CC[C@H]1OC(=O)[C@H](C)[C@@H](O[C@@H]2O[C@H](C)C[C@H](N(C)C)[C@H]2O)[C@@H](C)C[C@@H](C)C(=O)/C=C/[C@H]1C [YC-17]
enhancement of catalytic activity by fusion (PikC-RhFRED vs wt-PikC) (PikC-RhFRED [1]): approximately 4 fold | Kd (wt-PikC): 113 ± 1.9 µM | Kd (PikC-RhFRED [2]): 92.6 ± 0.5 µM

CC[C@H]1OC(=O)[C@H](C)C(=O)[C@H](C)[C@@H](O[C@@H]2O[C@H](C)C[C@H](N(C)C)[C@H]2O)[C@@H](C)C[C@@H](C)C(=O)/C=C/[C@H]1C [narbomycin]
enhancement of catalytic activity by fusion (PikC-RhFRED vs wt-PikC) (PikC-RhFRED [1]): approximately 4 fold | Kd (wt-PikC): 288 ± 7.1 µM | Kd (PikC-RhFRED [2]): 215 ± 4.2 µM
